Source: patent US12441693B2, “Targeting STAT sumoylation to enhance immune responses” (THE GEORGE WASHINGTON UNIVERSITY, priority 2018, dated 2025)

How the values were obtained:
STAT5 = target: T1, STAT5 (Homo sapiens, UniProt P42229); test: Cellular thermal shift assay (CETSA) in 293FT-STAT5A cell lysates; type: binding
T1 construct: expressed in transfected cells; host or cells: 293FT HEK cells expressing STAT5A (293FT-STAT5A)
T1 sequence (P42229 1-794): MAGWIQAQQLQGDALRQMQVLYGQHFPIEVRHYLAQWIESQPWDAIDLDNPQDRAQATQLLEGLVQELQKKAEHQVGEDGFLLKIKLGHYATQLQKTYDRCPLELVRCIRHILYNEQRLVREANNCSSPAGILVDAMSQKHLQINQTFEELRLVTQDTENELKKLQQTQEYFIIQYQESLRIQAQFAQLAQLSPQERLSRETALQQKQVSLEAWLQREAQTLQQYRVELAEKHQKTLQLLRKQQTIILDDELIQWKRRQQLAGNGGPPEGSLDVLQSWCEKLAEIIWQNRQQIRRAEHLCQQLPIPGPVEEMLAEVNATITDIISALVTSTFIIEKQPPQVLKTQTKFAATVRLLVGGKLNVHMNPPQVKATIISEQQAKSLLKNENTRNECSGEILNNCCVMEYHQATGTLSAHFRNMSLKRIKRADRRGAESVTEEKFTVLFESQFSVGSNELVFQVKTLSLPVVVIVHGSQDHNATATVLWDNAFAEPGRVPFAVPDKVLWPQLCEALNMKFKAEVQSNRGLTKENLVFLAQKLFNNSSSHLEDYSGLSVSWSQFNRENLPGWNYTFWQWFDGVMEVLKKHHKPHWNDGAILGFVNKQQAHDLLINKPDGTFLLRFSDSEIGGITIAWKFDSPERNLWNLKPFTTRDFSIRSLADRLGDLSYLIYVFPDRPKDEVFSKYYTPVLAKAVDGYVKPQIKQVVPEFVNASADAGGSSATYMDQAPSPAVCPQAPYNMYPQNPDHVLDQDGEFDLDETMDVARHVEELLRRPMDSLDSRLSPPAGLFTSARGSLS
Text: To evaluate whether HODHBt and its analogs were directly binding to STAT5, a recently developed assay, cellular thermal shift assay (CETSA), was used. CETSA is based on the biophysical principle of ligand-induced changes in thermal stability of target proteins. As detailed in Molina & Nordlund, ANNU RE[…]. 2016; 56:141-61, the disclosure of which is hereby incorporated by reference in its entirety, the CETSA assay has been extensively used to identify drug targets using lysates, cells and tissues (FIG. 7A). After heating at different temperatures, the soluble fractions are analyzed for changes in the levels of the target protein (FIG. 7B). Binding of the compound can change the temperature at which the protein is denaturalized (FIG. 7C) leading to a change in the thermal melting curve (FIG. 7D).
First, it was addressed whether HODHBt induced a thermal shift of STAT5 using cell lysates from 293FT-STAT5A. In this assay, high drug concentrations were used to perform CETSA in cell lysates (10,000-20,000 times the IC50). […] Briefly, cell lysates were incubated with either DMSO or HODHBt for 30 minutes at 25° C. After incubation, lysates were heated from 40° C. to 75° C. in 5 degrees intervals and the insoluble fractions were eliminated by centrifugation. […]

[1] = tested on: polyclonally activated CD4 T cells (TCM) killed by CD8 T cells
Text: An in vitro model to assess the cytolytic potential of human polyclonally activated CD8 T cells was developed. This model relied on the concept of a mix-lymphocyte reaction (MLR) in which CD8 T cells recognize CD4 T cells from a different donor as foreign and induced their killing (FIG. 11A). In this model, polyclonally activated CD8 T cells were co-cultured with polyclonally activated CD4 T cells from a different donor at an effector:target ratio (E:T) of 1:1. Cell death in both CD4 and CD8 subsets was measured at different time points using a fixable viability dye.
To test this hypothesis, polyclonally activated CD8 T cells were co-cultured with polyclonally activated CD4 T cells from a different donor to resemble a mixed-lymphocyte reaction (MLR) at an effector:target ratio (E:T) 1:1 (FIG. 15A). CD4 T cells were activated in conditions that generate central memory CD4 T cells (TCM) cells. CD4 TCM are more resistant to apoptosis than other subsets of CD4 T cells. Cell death in both CD4 and CD8 subsets was measured at 72 hours using a fixable viability dye. Specifically, polyclonally activated CD4 T cells and CD8 T cells were co-cultured and cell death was measured at 72 hours. […] Using this assay, it was tested whether HODHBt increased the cytolytic capacity of CD8 T cells in two experimental set ups.

STAT1, STAT5, Mx1 = test: Western blot of primary CD4 T cells (pSTAT1, pSTAT5, Mx1); type: cell-based, human; conditions: increased concentrations
Protocol: In general, samples are prepared and loaded on to a gel and during the electrophoresis the negatively charged proteins move toward the positively charged anode. In order to further analyze the proteins, they are transferred onto a membrane in a procedure called blotting. After the transfer, the membrane is blocked in order to prevent unwanted membrane-protein interaction in the following steps. To visualize the protein of interest the membrane is commonly first probed using a primary protein-specific antibody followed by a labeled secondary antibody used for detection. An image is taken of the membrane and the result is analyzed.

## O=c1c2ccccc2nnn1O [HODHBt]
STAT5; lysates incubated with HODHBt, Western blot
  high molecular band generated (size of STAT5 dimer): approximately 188 kDa
STAT5; lysates, 5 mM, 30 minutes at 25° C, heated 40-75° C
  thermal melting curve of STAT5: drastically changed the thermal melting curve of STAT5, promoting its degradation
[1]; CD8 T cells expanded in the presence of HODHBt
  killing capacity of CD8 T cells expanded in the presence of compound: higher killing capacity
[1]; HODHBt added during the MLR reaction, 72 hours
  killing capacity of CD8 T cells over TCM cells: increased the killing capacity of CD8 T cells over TCM cells in a dose dependent manner
[1]; human
  CD8 T cell death in co-culture: no increase in cell death in CD8 T cells in any of the experimental conditions
[1]; human, 72 h
  toxicity on CD8 T cells: no overt toxicity on CD8 T cells
[1]; time course, fixable viability dye
  CD4 T cell death in co-culture with CD8 T cells: detected only in the co-culture treated with HODHBt at 72 hours and 96 hours
STAT1, STAT5, Mx1
  levels of myxovirus resistance 1 (Mx1): increased the levels
  levels of phosphorylated STAT1 and STAT5: increased the levels of phosphorylated STAT1 and STAT5
